Source: PubChem BioAssay (NCI)
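Test compounds were applied to cells in 96-well plates for 48 hours at 5 doses. GI50 is the concentration that inhibits growth by half. TGI: total growth inhibition.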

Columns and labels:
Assay in all cases: NCI tumour cell line growth inhibition, 48 h
A498 renal = system: A498 renal
CAKI-1 renal = system: CAKI-1 renal
DU-145 prostate = system: DU-145 prostate
OVCAR-5 ovarian = system: OVCAR-5 ovarian
RXF 393 renal = system: RXF 393 renal
SF-295 CNS = system: SF-295 CNS
SK-MEL-2 melanoma = system: SK-MEL-2 melanoma
SK-MEL-28 melanoma = system: SK-MEL-28 melanoma
SK-MEL-5 melanoma = system: SK-MEL-5 melanoma
SK-OV-3 ovarian = system: SK-OV-3 ovarian
SN12C renal = system: SN12C renal
TK-10 renal = system: TK-10 renal
UACC-257 melanoma = system: UACC-257 melanoma
UACC-62 melanoma = system: UACC-62 melanoma
UO-31 renal = system: UO-31 renal

For `N#Cc1c(-c2ccc(Cl)cc2)nc(SCc2ccc([N+](=O)[O-])cc2)nc1N1CCNCC1`, the GI50 (A498 renal) was 1560 nM, the TGI (A498 renal) was 2980 nM and the GI50 (CAKI-1 renal) was 1550 nM. It also gave a TGI (CAKI-1 renal) of 2900 nM, a GI50 (DU-145 prostate) of 1730 nM and a TGI (DU-145 prostate) of 3110 nM. The GI50 (OVCAR-5 ovarian) was 1560 nM, the TGI (OVCAR-5 ovarian) was 2980 nM and the GI50 (RXF 393 renal) was 1540 nM. It also gave a TGI (RXF 393 renal) of 2970 nM, a GI50 (SF-295 CNS) of 1780 nM and a TGI (SF-295 CNS) of 3210 nM. The GI50 (SK-MEL-2 melanoma) was 1610 nM, the TGI (SK-MEL-2 melanoma) was 3050 nM and the GI50 (SK-MEL-28 melanoma) was 1640 nM. The TGI (SK-MEL-28 melanoma) was 3020 nM, the GI50 (SK-MEL-5 melanoma) was 1680 nM and the TGI (SK-MEL-5 melanoma) was 3060 nM. The GI50 (SK-OV-3 ovarian) was 1780 nM, the TGI (SK-OV-3 ovarian) was 3200 nM and the GI50 (SN12C renal) was 1770 nM. The TGI (SN12C renal) was 3260 nM, the GI50 (TK-10 renal) was 1560 nM and the TGI (TK-10 renal) was 2960 nM. The GI50 (UACC-257 melanoma) was 1620 nM, the TGI (UACC-257 melanoma) was 3060 nM and the GI50 (UACC-62 melanoma) was 1690 nM. It also gave a TGI (UACC-62 melanoma) of 3110 nM, a GI50 (UO-31 renal) of 1320 nM and a TGI (UO-31 renal) of 2590 nM.
